Experimental data reported in US20210309860A1, “ANTHRAQUINONIC DERIVATIVES AND THEIR USE AS COLOURING AGENTS” (PILI, priority 2018, published 2021).

Legend:
[1] = Experimental log P octanol/water by UV-Vis spectroscopy assay; conditions: octanol/water (1:1), pH 7
[2] = UV-Visible analysis in methanol; format: physicochemical; conditions: for Colour: methanol solution; for log ε / λmax visible / L1/2: methanol; for log ε: log of average molar extinction coefficient, characterizes the strength of the colour; for λmax visible: maximum absorption in visible spectra 400-800 nm, 1 cm quartz cuvette, characterizes the colour; for L1/2: width measured at A/2, characterizes the brilliance of the colour
Experimental: UV-Visible analysis was carried on a Genesys10 UV photometer and recorded with the help of “VisionLite Scan” software. For each molecule, a certain amount was weighed with a precision balance and fully dissolved (under sonication if necessary) in methanol to obtain a mother solution at 1 mg/mL. Serial dilutions were performed to obtain samples in a range from 0.0025 mg/mL to 0.5 mg/mL. Samples were analyzed from 190 to 800 nm in a 1 cm quartz cuvette. For each concentration, the wavelength of maximum absorption in the visible spectra (400-800 nm) was recorded with a precision of 2 nm, and the width was measured at A/2. Additionally, molar extinction coefficient ε was calculated for each sample and the log of the average value presented. λmax visible characterizes the colour, L1/2 characterizes the brilliance of the colour, ε characterizes the strength of the colour.

[3] = pH 7

logP at 6 h [1] | Colour [2] | log ε [2] | λmax visible [2] [nm] | L1/2 [2] [nm] | Measured logP [3] | Molecule
3.4 | – | – | – | – | – | O=C1c2cccc(O)c2C(=O)c2c(O)cccc21 [1,8-dihydroxy anthraquinone]
2.8 | – | – | – | – | – | O=C1c2ccccc2C(=O)c2c1ccc(O)c2O [Alizarin]
4 | – | – | – | – | – | Cc1cc(O)c2c(c1)C(=O)c1cccc(O)c1C2=O [Chrysophanic acid]
3.2 | Yellow | 3.5 | 408 | 94 | – | Cc1cc(O)cc2c1C(=O)c1c(O)cccc1C2=O [Compound 5, 3,8-dihydroxy-1-methyl-anthracene-9,10-dione, reference compound]
– | Stronger yellow | 3.62 | 406 | 81 | – | COc1cc(C)c2c(c1)C(=O)c1cccc(O)c1C2=O [Compound 6, 8-hydroxy-3-methoxy-1-methyl-anthracene-9,10-dione, reference compound]
– | Yellow | 3.9 | 408 | 86 | – | Cc1c(C(=O)O)c(O)cc2c1C(=O)c1c(O)cccc1C2=O [Compound 7, 3,8-dihydroxy-1-methyl-9,10-dioxo-anthracene-2-carboxylic acid, reference compound]
– | Orange | 2.44 | 452 | 142 | – | Cc1cc(N)cc2c1C(=O)c1c(O)cccc1C2=O [Compound 8, 3-amino-8-hydroxy-1-methyl-anthracene-9,10-dione]
– | “Carmine-like” red | 2.25 | 480 | 104 | – | Cc1cc(Nc2ccccc2)cc2c1C(=O)c1c(O)cccc1C2=O [Compound 9, 3-anilino-8-hydroxy-1-methyl-anthracene-9,10-dione]
– | Purple/red purplish | 2.72 | 496 | 152 | – | Cc1cc(Nc2ccccc2)cc2c1C(=O)c1c(Nc3ccccc3)cccc1C2=O [Compound 10, 3,8-dianilino-1-methyl-anthracene-9,10-dione]
– | Purple | 2.8 | 510 | 128 | – | CC(=O)Nc1cccc(Nc2cc(C)c3c(c2)C(=O)c2cccc(Nc4cccc(NC(C)=O)c4)c2C3=O)c1 [Compound 11, N-(3-((6-(3-acetamidoanilino)-8-methyl-9,10-dioxo-1-anthryl)amino)phenyl) Acetamide]
– | Purple | 2.46 | 524 | 94 | – | Cc1cc(NC2CCCCC2)cc2c1C(=O)c1c(NC3CCCCC3)cccc1C2=O [Compound 12, 3,8-bis(cyclohexylamino)-1-methyl-anthracene-9,10-dione]
– | Red-purple | 3.12 | 508 | 104 | – | Cc1ccc(S(=O)(=O)Oc2cccc3c2C(=O)c2c(C)cc(Nc4ccccc4)cc2C3=O)cc1 [Compound 14, (6-anilino-8-methyl-9,10-dioxo-1-anthryl)-4-methylbenzenesulfonate]
– | Purple | 3.41 | 498 | 100 | – | Cc1cc(O)c(N)c2c1C(=O)c1c(O)cccc1C2=O [Compound 17b, 1-amino-2,5-dihydroxy-4-methyl-anthracene-9,10-dione]
– | Purple | 3.25 | 518 | 106 | – | Cc1c(C(=O)O)c(O)c(N)c2c1C(=O)c1c(O)ccc(N)c1C2=O [Compound 19b, 4,5-diamino-3,8-dihydroxy-1-methyl-9,10-dioxo-anthracene-2-carboxylic acid]
– | – | – | – | – | 3.7 | Quinizarin
